Laboratory results published in patent US6706740B2, “Fungicidal heterocyclic aromatic amides and their compositions, methods of use and preparation” (Dow AgroSciences LLC, priority 1999, dated 2004).

System: Magnaporthe grisea (Pyricularia oryzae—PYRIOR)
Test: microbe, parasite or virus in culture
Type: cell-based
Settings: Pyricularia oryzae, read-out: PYRIOR in vitro Growth Inhibition

Question: With `COc1ccnc(C(=O)NC(COC(=O)CC(C)OC(=O)C(C)C)C(=O)OC(C)C)c1O` (centres unmarked) [Compound 352] as the compound, how does the inhibition at 25 ppm read?
Answer: < 80%

Question: `COc1ccnc(C(=O)NC2CCN(C(=O)CCc3ccccc3)CC2)c1O` [Compound 309] was tested. Which inhibition at 25 ppm did it give?
Answer: < 80%

Question: With `COc1ccnc(C(=O)N[C@@H](CO)C(=O)O[C@@H](C)[C@H](OC(=O)C(C)C)[C@@H](Cc2ccccc2)C(=O)O)c1O` [Compound 341] as the compound, how does the inhibition at 25 ppm read?
Answer: < 80%

Question: How did the inhibition at 25 ppm turn out when `CC(C)C(=O)O[C@H]1[C@H](C)OC(=O)[C@@H](NC(=O)c2nsnc2O)COC(=O)[C@@H]1Cc1ccccc1` [Compound 553] was run?
Answer: > 80%

System: Rhizoctonia solani (RHIZSO)
Test: microbe, parasite or virus in culture
Type: cell-based
Settings: Rhizoctonia solani, read-out: RHIZSO in vitro Growth Inhibition

Question: Which inhibition at 25 ppm does the source give for `COc1ccnc(C(=O)NC(COC(=O)CC(C)OC(=O)C(C)C)C(=O)OC(C)C)c1O` (centres unmarked) [Compound 352] here?
Answer: < 80%

Question: With `COc1ccnc(C(=O)NC2CCN(C(=O)CCc3ccccc3)CC2)c1O` [Compound 309] as the compound, how does the inhibition at 25 ppm read?
Answer: < 80%

Question: Which inhibition at 25 ppm does the source give for `COc1ccnc(C(=O)N[C@@H](CO)C(=O)O[C@@H](C)[C@H](OC(=O)C(C)C)[C@@H](Cc2ccccc2)C(=O)O)c1O` [Compound 341] here?
Answer: < 80%

Question: Which inhibition at 25 ppm does the source give for `CC(C)C(=O)O[C@H]1[C@H](C)OC(=O)[C@@H](NC(=O)c2nsnc2O)COC(=O)[C@@H]1Cc1ccccc1` [Compound 553] here?
Answer: > 80%

System: Mycosphaerella graminicola (Septoria tritici—SEPTTR)
Test: In vitro fungal growth inhibition, Mycosphaerella graminicola (SEPTTR)
Type: cell-based
Settings: Zymoseptoria tritici; 25 ppm in growth medium; read-out: SEPTTR in vitro Growth Inhibition

Question: Which inhibition at 25 ppm does the source give for `COc1ccnc(C(=O)NC(COC(=O)CC(C)OC(=O)C(C)C)C(=O)OC(C)C)c1O` (centres unmarked) [Compound 352] here?
Answer: < 80%

Question: For `COc1ccnc(C(=O)NC2CCN(C(=O)CCc3ccccc3)CC2)c1O` [Compound 309], which inhibition at 25 ppm is on record?
Answer: < 80%

Question: `COc1ccnc(C(=O)N[C@@H](CO)C(=O)O[C@@H](C)[C@H](OC(=O)C(C)C)[C@@H](Cc2ccccc2)C(=O)O)c1O` [Compound 341] was tested. Which inhibition at 25 ppm did it give?
Answer: < 80%

Same assay, conditions: Zymoseptoria tritici; 25 ppm in the growth medium; read-out: SEPTTR in vitro Growth Inhibition

Question: For `CC(C)C(=O)O[C@H]1[C@H](C)OC(=O)[C@@H](NC(=O)c2nsnc2O)COC(=O)[C@@H]1Cc1ccccc1` [Compound 553], which inhibition at 25 ppm is on record?
Answer: > 80%

System: Stagonospora nodorum (Leptosphaeria nodorum—LEPTNO)
Test: In vitro fungal growth inhibition, Stagonospora nodorum (LEPTNO)
Type: cell-based
Settings: Leptosphaeria; 25 ppm in growth medium; read-out: LEPTNO in vitro Growth Inhibition

Question: For `COc1ccnc(C(=O)NC(COC(=O)CC(C)OC(=O)C(C)C)C(=O)OC(C)C)c1O` (centres unmarked) [Compound 352], which inhibition at 25 ppm is on record?
Answer: < 80%

Question: With `COc1ccnc(C(=O)NC2CCN(C(=O)CCc3ccccc3)CC2)c1O` [Compound 309] as the compound, how does the inhibition at 25 ppm read?
Answer: < 80%

Question: With `COc1ccnc(C(=O)N[C@@H](CO)C(=O)O[C@@H](C)[C@H](OC(=O)C(C)C)[C@@H](Cc2ccccc2)C(=O)O)c1O` [Compound 341] as the compound, how does the inhibition at 25 ppm read?
Answer: < 80%

Same assay, conditions: Leptosphaeria; 25 ppm in the growth medium; read-out: LEPTNO in vitro Growth Inhibition

Question: How did the inhibition at 25 ppm turn out when `CC(C)C(=O)O[C@H]1[C@H](C)OC(=O)[C@@H](NC(=O)c2nsnc2O)COC(=O)[C@@H]1Cc1ccccc1` [Compound 553] was run?
Answer: > 80%

System: Ustilago maydis (USTIMA)
Test: microbe, parasite or virus in culture
Type: cell-based
Settings: Mycosarcoma maydis, read-out: USTIMA in vitro Growth Inhibition

Question: `COc1ccnc(C(=O)NC(COC(=O)CC(C)OC(=O)C(C)C)C(=O)OC(C)C)c1O` (centres unmarked) [Compound 352] was tested. Which inhibition at 25 ppm did it give?
Answer: < 80%

Question: `COc1ccnc(C(=O)NC2CCN(C(=O)CCc3ccccc3)CC2)c1O` [Compound 309] was tested. Which inhibition at 25 ppm did it give?
Answer: < 80%

Question: Which inhibition at 25 ppm does the source give for `COc1ccnc(C(=O)N[C@@H](CO)C(=O)O[C@@H](C)[C@H](OC(=O)C(C)C)[C@@H](Cc2ccccc2)C(=O)O)c1O` [Compound 341] here?
Answer: < 80%

Question: How did the inhibition at 25 ppm turn out when `CC(C)C(=O)O[C@H]1[C@H](C)OC(=O)[C@@H](NC(=O)c2nsnc2O)COC(=O)[C@@H]1Cc1ccccc1` [Compound 553] was run?
Answer: > 80%

System: Phytophthora infestans (PHYTIN)
Test: microbe, parasite or virus in culture
Type: cell-based
Settings: Phytophthora infestans, read-out: PHYTIN in vitro Growth Inhibition

Question: `COc1ccnc(C(=O)NC(COC(=O)CC(C)OC(=O)C(C)C)C(=O)OC(C)C)c1O` (centres unmarked) [Compound 352] was tested. Which inhibition at 25 ppm did it give?
Answer: < 80%

Question: How did the inhibition at 25 ppm turn out when `COc1ccnc(C(=O)NC2CCN(C(=O)CCc3ccccc3)CC2)c1O` [Compound 309] was run?
Answer: < 80%

Question: How did the inhibition at 25 ppm turn out when `COc1ccnc(C(=O)N[C@@H](CO)C(=O)O[C@@H](C)[C@H](OC(=O)C(C)C)[C@@H](Cc2ccccc2)C(=O)O)c1O` [Compound 341] was run?
Answer: < 80%

Question: How did the inhibition at 25 ppm turn out when `CC(C)C(=O)O[C@H]1[C@H](C)OC(=O)[C@@H](NC(=O)c2nsnc2O)COC(=O)[C@@H]1Cc1ccccc1` [Compound 553] was run?
Answer: > 80%

System: Phytophthora infestans—PHYTIN
Test: whole plant or invertebrate
Type: in vivo
Settings: Phytophthora, in Solanum lycopersicum, 24 h, read-out: PHYTIN in vivo 1 Day Protectant

Question: Which pest or weed control at 100 ppm does the source give for `COc1ccnc(C(=O)NC(COC(=O)CC(C)OC(=O)C(C)C)C(=O)OC(C)C)c1O` (centres unmarked) [Compound 352] here?
Answer: < 25%

Question: For `COc1ccnc(C(=O)NC2CCN(C(=O)CCc3ccccc3)CC2)c1O` [Compound 309], which pest or weed control at 100 ppm is on record?
Answer: < 25%

Question: `COc1ccnc(C(=O)N[C@@H](CO)C(=O)O[C@@H](C)[C@H](OC(=O)C(C)C)[C@@H](Cc2ccccc2)C(=O)O)c1O` [Compound 341] was tested. Which pest or weed control at 100 ppm did it give?
Answer: < 25%

Same assay, conditions: tomato plants sprayed at 100 ppm, inoculated after 24 hours; control of fungal infection vs untreated plants

Question: For `CC(C)C(=O)O[C@H]1[C@H](C)OC(=O)[C@@H](NC(=O)c2nsnc2O)COC(=O)[C@@H]1Cc1ccccc1` [Compound 553], which “PHYTIN in vivo 1 Day Protectant” value is on record?
Answer: + +

System: Puccinia recondita—PUCCRT
Test: Brown Rust of Wheat, in vivo whole plant, 24 Hour Protectant
Settings: Puccinia; 100 ppm spray, 24 hour protectant, wheat; control of fungal infection vs untreated plants; read-out: PUCCRT in vivo 1 Day Protectant

Question: For `COc1ccnc(C(=O)NC2CCN(C(=O)CCc3ccccc3)CC2)c1O` [Compound 309], which pest or weed control at 100 ppm is on record?
Answer: < 25%

Same assay, conditions: Puccinia; 100 ppm spray, wheat, 24 hour protectant; control of fungal infection vs untreated plants; read-out: PUCCRT in vivo 1 Day Protectant

Question: How did the pest or weed control at 100 ppm turn out when `COc1ccnc(C(=O)NC(COC(=O)CC(C)OC(=O)C(C)C)C(=O)OC(C)C)c1O` (centres unmarked) [Compound 352] was run?
Answer: 25 to 74%

Question: `COc1ccnc(C(=O)N[C@@H](CO)C(=O)O[C@@H](C)[C@H](OC(=O)C(C)C)[C@@H](Cc2ccccc2)C(=O)O)c1O` [Compound 341] was tested. Which pest or weed control at 100 ppm did it give?
Answer: < 25%

Same assay, conditions: Puccinia; wheat plants sprayed at 100 ppm, inoculated after 24 hours; control of fungal infection vs untreated plants; read-out: PUCCRT in vivo 1 Day Protectant

Question: How did the pest or weed control at 100 ppm turn out when `CC(C)C(=O)O[C@H]1[C@H](C)OC(=O)[C@@H](NC(=O)c2nsnc2O)COC(=O)[C@@H]1Cc1ccccc1` [Compound 553] was run?
Answer: 25 to 74%

System: Erysiphe graminis—ERYSGT
Test: Powdery Mildew of Wheat, in vivo whole plant, 24 Hour Protectant
Settings: Erysiphe; 100 ppm spray, 24 hour protectant, wheat; control of fungal infection vs untreated plants; read-out: ERYSGT in vivo 1 Day Protectant

Question: With `COc1ccnc(C(=O)NC2CCN(C(=O)CCc3ccccc3)CC2)c1O` [Compound 309] as the compound, how does the pest or weed control at 100 ppm read?
Answer: 25 to 74%

Same assay, conditions: Erysiphe; 100 ppm spray, wheat, 24 hour protectant; control of fungal infection vs untreated plants; read-out: ERYSGT in vivo 1 Day Protectant

Question: For `COc1ccnc(C(=O)NC(COC(=O)CC(C)OC(=O)C(C)C)C(=O)OC(C)C)c1O` (centres unmarked) [Compound 352], which pest or weed control at 100 ppm is on record?
Answer: < 25%

Question: Which pest or weed control at 100 ppm does the source give for `COc1ccnc(C(=O)N[C@@H](CO)C(=O)O[C@@H](C)[C@H](OC(=O)C(C)C)[C@@H](Cc2ccccc2)C(=O)O)c1O` [Compound 341] here?
Answer: < 25%

Same assay, conditions: Erysiphe; wheat plants sprayed at 100 ppm, inoculated after 24 hours; control of fungal infection vs untreated plants; read-out: ERYSGT in vivo 1 Day Protectant

Question: Which pest or weed control at 100 ppm does the source give for `CC(C)C(=O)O[C@H]1[C@H](C)OC(=O)[C@@H](NC(=O)c2nsnc2O)COC(=O)[C@@H]1Cc1ccccc1` [Compound 553] here?
Answer: 25 to 74%

System: Septoria tritici—SEPTTR
Test: Leaf Blotch of Wheat, in vivo whole plant, 24 Hour Protectant
Settings: Zymoseptoria tritici, 24 h, 100 ppm spray, 24 hour protectant, wheat; control of fungal infection vs untreated plants; read-out: SEPTTR in vivo 1 Day Protectant

Question: How did the pest or weed control at 100 ppm turn out when `COc1ccnc(C(=O)NC2CCN(C(=O)CCc3ccccc3)CC2)c1O` [Compound 309] was run?
Answer: < 25%

Same assay, conditions: Zymoseptoria tritici, 24 h, 100 ppm spray, wheat, 24 hour protectant; control of fungal infection vs untreated plants; read-out: SEPTTR in vivo 1 Day Protectant

Question: For `COc1ccnc(C(=O)NC(COC(=O)CC(C)OC(=O)C(C)C)C(=O)OC(C)C)c1O` (centres unmarked) [Compound 352], which pest or weed control at 100 ppm is on record?
Answer: < 25%

Question: How did the pest or weed control at 100 ppm turn out when `COc1ccnc(C(=O)N[C@@H](CO)C(=O)O[C@@H](C)[C@H](OC(=O)C(C)C)[C@@H](Cc2ccccc2)C(=O)O)c1O` [Compound 341] was run?
Answer: 25 to 74%

Same assay, conditions: Zymoseptoria tritici, 24 h, wheat plants sprayed at 100 ppm, inoculated after 24 hours; control of fungal infection vs untreated plants; read-out: SEPTTR in vivo 1 Day Protectant

Question: Which pest or weed control at 100 ppm does the source give for `CC(C)C(=O)O[C@H]1[C@H](C)OC(=O)[C@@H](NC(=O)c2nsnc2O)COC(=O)[C@@H]1Cc1ccccc1` [Compound 553] here?
Answer: 25 to 74%

System: Leptosphaeria nodorum—LEPTNO
Test: Glume Blotch of Wheat, in vivo whole plant, 24 Hour Protectant
Settings: Leptosphaeria; 100 ppm spray, 24 hour protectant, wheat; control of fungal infection vs untreated plants; read-out: LEPTNO in vivo 1 Day Protectant

Question: How did the pest or weed control at 100 ppm turn out when `COc1ccnc(C(=O)NC2CCN(C(=O)CCc3ccccc3)CC2)c1O` [Compound 309] was run?
Answer: 25 to 74%

Same assay, conditions: Leptosphaeria; 100 ppm spray, wheat, 24 hour protectant; control of fungal infection vs untreated plants; read-out: LEPTNO in vivo 1 Day Protectant

Question: Which pest or weed control at 100 ppm does the source give for `COc1ccnc(C(=O)NC(COC(=O)CC(C)OC(=O)C(C)C)C(=O)OC(C)C)c1O` (centres unmarked) [Compound 352] here?
Answer: < 25%

Question: Which pest or weed control at 100 ppm does the source give for `COc1ccnc(C(=O)N[C@@H](CO)C(=O)O[C@@H](C)[C@H](OC(=O)C(C)C)[C@@H](Cc2ccccc2)C(=O)O)c1O` [Compound 341] here?
Answer: < 25%

Same assay, conditions: wheat plants sprayed at 100 ppm, inoculated after 24 hours; control of fungal infection vs untreated plants

Question: With `CC(C)C(=O)O[C@H]1[C@H](C)OC(=O)[C@@H](NC(=O)c2nsnc2O)COC(=O)[C@@H]1Cc1ccccc1` [Compound 553] as the compound, how does the “LEPTNO in vivo 1 Day Protectant” value read?
Answer: + +
